pIC50: −log10 of the molar value.
What was measured:
human Nav1.5 = human Nav1.5 (Homo sapiens (Human), UniProt Q14524); assay: Human Nav1.5 inhibitory activity evaluation (automated patch clamp QPatch16X, HEK293 cells stably expressing human Nav1.5); format: cell-based
Outline: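 Whole-cell automated patch clamp at room temperature on HEK293 stably expressing human Nav1.5; holding −80 mV, 20 consecutive cardiomyocyte action-potential-like test pulses before and after compound (0.1% DMSO). Inhibition measured on inward current at 20th pulse; IC50 from concentration-response curve.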

human Nav1.7 = human Nav1.7 (Homo sapiens (Human), UniProt Q15858); assay: Human Nav1.7 inhibitory activity evaluation (automated patch clamp QPatch16X, HEK293A cells stably expressing human Nav1.7 and human Navβ1); format: cell-based
Outline: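 QPatch16X whole-cell recordings at room temperature from HEK293A cells stably expressing human Nav1.7 with Navβ1, CsF-based internal solution, pH 7.4 external, 0.1% DMSO. From −100 mV holding, protocol included a 15 s hold at a potential inactivating ~30-40% of channels; IC50 from inward current at the second −10 mV pulse.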

[1] = HEK293 cells stably expressing human Nav1.5, automated patch clamp QPatch16X
[2] = HEK293A cells stably expressing human Nav1.7 and human Navβ1, automated patch clamp QPatch16X
[3] = human Nav1.5, automated patch clamp
[4] = human Nav1.7, automated patch clamp

Sequence of human Nav1.5 (Q14524 whole entry): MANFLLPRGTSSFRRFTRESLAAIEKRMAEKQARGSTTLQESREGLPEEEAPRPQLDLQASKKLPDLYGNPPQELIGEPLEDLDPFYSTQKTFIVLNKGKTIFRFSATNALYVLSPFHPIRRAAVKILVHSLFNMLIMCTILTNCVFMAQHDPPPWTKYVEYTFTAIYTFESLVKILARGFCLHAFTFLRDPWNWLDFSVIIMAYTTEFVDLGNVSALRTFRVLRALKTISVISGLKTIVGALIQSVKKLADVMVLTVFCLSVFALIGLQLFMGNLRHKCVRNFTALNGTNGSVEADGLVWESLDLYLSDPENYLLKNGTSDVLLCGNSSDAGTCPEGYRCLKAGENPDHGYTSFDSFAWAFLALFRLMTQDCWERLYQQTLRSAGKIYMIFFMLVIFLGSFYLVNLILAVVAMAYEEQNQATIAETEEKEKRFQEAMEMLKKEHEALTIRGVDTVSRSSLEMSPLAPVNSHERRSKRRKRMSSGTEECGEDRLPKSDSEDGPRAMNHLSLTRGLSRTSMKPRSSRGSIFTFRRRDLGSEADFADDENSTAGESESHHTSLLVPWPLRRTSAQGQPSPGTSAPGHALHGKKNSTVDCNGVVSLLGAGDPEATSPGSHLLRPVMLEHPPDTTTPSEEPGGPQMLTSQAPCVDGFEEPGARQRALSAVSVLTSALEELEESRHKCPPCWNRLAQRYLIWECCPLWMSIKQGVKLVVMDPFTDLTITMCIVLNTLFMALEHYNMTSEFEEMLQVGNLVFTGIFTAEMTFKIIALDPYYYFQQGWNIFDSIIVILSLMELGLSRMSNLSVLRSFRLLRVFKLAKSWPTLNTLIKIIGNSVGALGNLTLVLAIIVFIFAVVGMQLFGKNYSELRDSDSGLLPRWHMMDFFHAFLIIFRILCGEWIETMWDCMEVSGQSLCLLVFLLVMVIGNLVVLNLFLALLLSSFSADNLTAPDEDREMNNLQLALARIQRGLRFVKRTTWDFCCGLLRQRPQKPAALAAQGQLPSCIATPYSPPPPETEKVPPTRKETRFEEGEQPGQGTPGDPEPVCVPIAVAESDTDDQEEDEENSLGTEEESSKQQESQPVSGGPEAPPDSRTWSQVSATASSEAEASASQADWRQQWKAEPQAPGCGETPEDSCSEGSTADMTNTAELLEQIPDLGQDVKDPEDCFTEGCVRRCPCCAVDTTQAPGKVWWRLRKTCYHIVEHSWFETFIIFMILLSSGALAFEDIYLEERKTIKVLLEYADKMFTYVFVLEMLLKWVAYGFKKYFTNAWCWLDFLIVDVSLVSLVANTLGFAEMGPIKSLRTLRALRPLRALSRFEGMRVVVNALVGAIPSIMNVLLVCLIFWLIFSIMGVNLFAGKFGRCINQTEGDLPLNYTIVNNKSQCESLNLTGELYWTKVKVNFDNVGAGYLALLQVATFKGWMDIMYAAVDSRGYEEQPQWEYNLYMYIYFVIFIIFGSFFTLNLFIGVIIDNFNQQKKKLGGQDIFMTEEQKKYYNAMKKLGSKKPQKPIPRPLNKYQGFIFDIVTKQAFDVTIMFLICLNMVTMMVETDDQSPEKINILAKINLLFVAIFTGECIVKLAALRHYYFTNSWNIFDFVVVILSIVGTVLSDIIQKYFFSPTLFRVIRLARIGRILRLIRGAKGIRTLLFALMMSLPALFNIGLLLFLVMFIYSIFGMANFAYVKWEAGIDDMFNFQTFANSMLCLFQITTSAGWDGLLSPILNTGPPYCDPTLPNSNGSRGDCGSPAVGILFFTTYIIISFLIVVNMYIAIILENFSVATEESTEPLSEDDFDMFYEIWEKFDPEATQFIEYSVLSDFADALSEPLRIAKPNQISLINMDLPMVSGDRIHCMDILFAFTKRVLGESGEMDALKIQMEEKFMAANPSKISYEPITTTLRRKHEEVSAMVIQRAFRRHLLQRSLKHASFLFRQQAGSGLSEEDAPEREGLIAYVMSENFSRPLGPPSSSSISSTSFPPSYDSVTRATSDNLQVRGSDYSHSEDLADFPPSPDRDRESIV
Sequence of human Nav1.7 (Q15858 whole entry): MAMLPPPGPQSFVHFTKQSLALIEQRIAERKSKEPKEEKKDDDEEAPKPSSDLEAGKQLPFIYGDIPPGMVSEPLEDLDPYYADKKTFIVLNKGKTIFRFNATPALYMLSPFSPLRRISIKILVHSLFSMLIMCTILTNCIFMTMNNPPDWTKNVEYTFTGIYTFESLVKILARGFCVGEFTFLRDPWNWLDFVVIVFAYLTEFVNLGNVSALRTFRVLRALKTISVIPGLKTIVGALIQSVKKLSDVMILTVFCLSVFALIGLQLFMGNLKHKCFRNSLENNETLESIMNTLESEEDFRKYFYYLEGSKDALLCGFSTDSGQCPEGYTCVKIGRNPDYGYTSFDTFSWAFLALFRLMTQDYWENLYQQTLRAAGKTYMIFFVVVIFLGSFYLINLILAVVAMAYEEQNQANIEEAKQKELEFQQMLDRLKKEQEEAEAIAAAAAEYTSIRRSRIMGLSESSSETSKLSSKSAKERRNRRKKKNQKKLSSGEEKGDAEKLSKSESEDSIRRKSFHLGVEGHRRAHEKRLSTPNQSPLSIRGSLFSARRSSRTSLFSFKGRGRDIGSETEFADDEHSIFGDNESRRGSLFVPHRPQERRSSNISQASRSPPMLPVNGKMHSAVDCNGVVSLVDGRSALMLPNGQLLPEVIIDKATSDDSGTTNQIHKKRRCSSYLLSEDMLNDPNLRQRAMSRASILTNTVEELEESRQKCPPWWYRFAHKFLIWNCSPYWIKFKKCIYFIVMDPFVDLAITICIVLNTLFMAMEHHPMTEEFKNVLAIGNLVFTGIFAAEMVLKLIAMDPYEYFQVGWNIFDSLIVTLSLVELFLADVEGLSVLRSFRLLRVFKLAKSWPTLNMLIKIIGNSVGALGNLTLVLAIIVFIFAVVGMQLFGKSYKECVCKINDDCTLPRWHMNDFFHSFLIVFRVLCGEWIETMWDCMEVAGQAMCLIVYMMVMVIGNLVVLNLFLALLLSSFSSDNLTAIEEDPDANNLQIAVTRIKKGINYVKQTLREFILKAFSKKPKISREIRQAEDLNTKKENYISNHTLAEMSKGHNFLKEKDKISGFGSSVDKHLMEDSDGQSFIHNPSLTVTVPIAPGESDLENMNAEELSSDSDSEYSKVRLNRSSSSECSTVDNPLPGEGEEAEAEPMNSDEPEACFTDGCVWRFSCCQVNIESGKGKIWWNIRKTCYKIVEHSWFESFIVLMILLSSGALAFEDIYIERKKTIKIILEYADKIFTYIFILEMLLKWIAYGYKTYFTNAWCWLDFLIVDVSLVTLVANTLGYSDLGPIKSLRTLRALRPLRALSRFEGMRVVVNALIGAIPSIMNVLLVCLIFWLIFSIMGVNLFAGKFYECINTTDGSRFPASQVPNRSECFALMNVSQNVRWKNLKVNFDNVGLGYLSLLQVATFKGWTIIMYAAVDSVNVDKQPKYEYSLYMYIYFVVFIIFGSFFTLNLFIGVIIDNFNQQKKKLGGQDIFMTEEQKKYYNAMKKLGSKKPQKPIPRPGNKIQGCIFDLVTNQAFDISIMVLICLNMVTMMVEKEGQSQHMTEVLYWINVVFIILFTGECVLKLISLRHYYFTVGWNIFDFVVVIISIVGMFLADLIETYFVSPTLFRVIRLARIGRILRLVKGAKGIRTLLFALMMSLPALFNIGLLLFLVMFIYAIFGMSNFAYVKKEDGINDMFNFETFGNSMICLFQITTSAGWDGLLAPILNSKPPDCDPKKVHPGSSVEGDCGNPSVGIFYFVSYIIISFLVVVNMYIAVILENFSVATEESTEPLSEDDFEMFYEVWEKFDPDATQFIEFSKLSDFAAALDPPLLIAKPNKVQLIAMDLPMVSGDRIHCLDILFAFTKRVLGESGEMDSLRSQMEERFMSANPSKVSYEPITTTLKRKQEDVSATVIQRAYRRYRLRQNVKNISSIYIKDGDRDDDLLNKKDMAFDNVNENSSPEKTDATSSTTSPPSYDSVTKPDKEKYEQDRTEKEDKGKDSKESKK
Sequence of human Nav1.7 (Q07699 19-218 partner): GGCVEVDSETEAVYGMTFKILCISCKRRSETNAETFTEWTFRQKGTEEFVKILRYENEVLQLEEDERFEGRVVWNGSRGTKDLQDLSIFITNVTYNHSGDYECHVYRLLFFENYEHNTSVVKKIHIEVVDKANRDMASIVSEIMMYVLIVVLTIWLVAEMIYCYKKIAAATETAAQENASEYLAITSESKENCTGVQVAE

SMILES	pIC50 (human Nav1.5; [1])	pIC50 (human Nav1.7; [2])	pIC50 (human Nav1.5; [3])	pIC50 (human Nav1.7; [4])
CCOCC1CCn2nc(C(=O)N[C@H]3COc4ccc(-c5ccc(C#N)nc5)cc4C3)cc2O1 (some centres unmarked) [Example 125]	≤ 5.52	> 5.00		
O=C(N[C@H]1COc2ccc(C(F)(F)F)cc2C1)c1cc2n(n1)CCN(CCOC1CCC1)C2 [Example 265]			≤ 5.52	> 6.00
O=C(N[C@H]1COc2ccc(C(F)(F)F)cc2C1)c1nc2n(c1-c1ccn[nH]1)CCCC2 [Example 19]	> 6.00	> 6.00		
O=C(N[C@H]1COc2ccc(C(F)(F)F)cc2C1O)c1cc2n(n1)C[C@H](COCC1CC1)O2 (single isomer, unassigned; isomer a) [576(isomer A)]			≤ 5.52	> 6.00
O=C(N[C@H]1COc2ccc(CCOC(F)F)cc2C1)c1cc2n(n1)CC(COCC(F)(F)F)O2 (single isomer, unassigned) [190 (isomer A)]			≤ 5.52	> 6.00
N#Cc1ccc2c(c1)C[C@@H](NC(=O)c1cc3n(n1)CC(CCCOCC(F)(F)F)O3)CO2 (single isomer, unassigned) [246 (isomer B)]			≤ 5.52	> 6.00
O=C(N[C@H]1COc2ccc(COCC(F)(F)F)cc2C1)c1cc2n(n1)CC(COCC(F)(F)F)O2 (stereo partly drawn) [Example 187, 2-((2,2,2-trifluoroethoxy)methyl)-N—((R)-6-((2,2,2-trifluoroethoxy)methyl)chroman-3-yl)-2,3-dihydropyrazolo[5,1-b]oxazole-6-carboxamide]			≤ 5.52	> 6.00
CC(C)CCC1Cn2cc(C(=O)N[C@H]3COc4ccccc4C3)nc2CN1 (some centres unmarked) [Example 49]	≤ 5.52	> 5.00		
O=C(N[C@H]1COc2ccc(COCC(F)(F)F)cc2C1)c1cc2n(n1)CCC(COCC(F)(F)F)CO2 (single isomer, unassigned) [602 (isomer A)]			≤ 5.52	> 6.00
O=C(N[C@H]1COc2ccc(-c3cccnc3)cc2C1)c1cc2n(n1)CCC(C(F)(F)F)O2 (some centres unmarked) [Example 375]			≤ 5.52	> 6.00
N#Cc1ccc2c(c1)C[C@@H](NC(=O)c1cc3n(n1)CCC(c1ccc(F)cc1)O3)CO2 (some centres unmarked) [Example 364]			5.52 to 6.00	> 6.00
O=C(N[C@H]1COc2ccc(-c3ccccn3)cc2C1)c1cc2n(n1)CCC(COCC(F)(F)F)O2 (single isomer, unassigned) [131 (isomer A)]	5.52 to 6.00	> 6.00		
O=C(N[C@H]1COc2ccc(CC(F)F)cc2C1)c1cc2n(n1)CC(CCOC(F)F)O2 (some centres unmarked) [Example 218]			≤ 5.52	> 6.00
Cc1cnc(-c2ccc3c(c2)C[C@@H](NC(=O)c2cc4n(n2)CC(COCC(F)(F)F)O4)CO3)cn1 (single isomer, unassigned) [194 (isomer B)]			≤ 5.52	> 6.00
CC(C)(C)C1CCc2nc(C(=O)N[C@H]3COc4ccccc4C3)cn2C1 (some centres unmarked) [Example 36]	≤ 5.52	> 6.00		
COC(C)(C)CCc1ccc2c(c1)C[C@@H](NC(=O)c1cc3n(n1)CCC(C(F)(F)F)O3)CO2 (some centres unmarked) [Example 400]			≤ 5.52	> 6.00
Cn1ccc(-c2ccc3c(c2)C[C@@H](NC(=O)c2cc4n(n2)CC(CCOCC2CC2)O4)CO3)n1 (some centres unmarked) [Example 461]			5.52 to 6.00	> 6.00
O=C(N[C@H]1COc2ccc(Cl)cc2C1)c1cc2n(n1)CC(CCNCC(F)(F)F)O2 (single isomer, unassigned) [226 (isomer A)]			≤ 5.52	> 6.00
O=C(N[C@H]1COc2ccc(COC3CCOCC3)cc2C1)c1cc2n(n1)CCC(c1ccccc1F)O2 (some centres unmarked) [Example 84]	≤ 5.52	> 5.00		
Cc1ccc2c(c1)C[C@@H](NC(=O)c1cc3n(n1)CC(CCNCC(F)(F)F)O3)CO2 (some centres unmarked) [Example 227]			5.52 to 6.00	> 6.00
Cn1ccc(-c2c(C(=O)N[C@H]3COc4ccc(C(F)(F)F)cc4C3)nc3n2CCOC3)n1 [Example 345]			5.52 to 6.00	> 6.00
CCc1ccc2c(c1)C[C@@H](NC(=O)c1cc3n(n1)CCC(c1ccccc1F)O3)CO2 (some centres unmarked) [Example 76]	≤ 5.52	> 6.00		
O=C(N[C@H]1COc2ccc(CC(F)F)cc2C1)c1cc2n(n1)CCC(COCC(F)(F)F)CO2 (single isomer, unassigned) [601 (isomer B)]			≤ 5.52	> 5.00
CN1Cc2nc(C(=O)NCC(F)c3cccc(C(F)(F)F)c3)cn2CC1c1cccc(C(F)(F)F)n1 (centres unmarked) [Example 333]			≤ 5.52	> 5.00
O=C(N[C@H]1COc2ccc(Cl)cc2C1)c1cn2c(n1)CCC(C(F)(F)F)C2 (single isomer, unassigned) [Example 2 (isomer B)]	≤ 5.52	> 6.00		
CCCC1CCn2nc(C(=O)N[C@H]3COc4ccc(C#N)cc4C3)cc2O1 (single isomer, unassigned) [95 (isomer A)]	≤ 5.52	> 6.00		

SMILES	pIC50 (human Nav1.5; [1])	pIC50 (human Nav1.7; [2])	pIC50 (human Nav1.5; [3])	pIC50 (human Nav1.7; [4])
CCNc1cccc(C2CCc3nc(C(=O)N4CCC(c5ccccc5)C4)cn3C2)n1 (centres unmarked) [Example 308]			5.52 to 6.00	> 5.00
O=C(N[C@H]1COc2ccc(CCOC(F)F)cc2C1)c1cc2n(n1)CC(CCOC(F)F)O2 (single isomer, unassigned) [217 (isomer A)]			5.52 to 6.00	> 6.00
O=C(N[C@H]1COc2ccc(CC(F)F)cc2C1)c1cc2n(n1)CCC(COCC1CC1)O2 (some centres unmarked) [Example 108]	5.52 to 6.00	> 6.00		
O=C(N[C@H]1COc2ccc(CC(F)F)cc2C1)c1cc2n(n1)CCN(CCC1CC1)C2 [Example 504]			5.52 to 6.00	> 6.00
O=C(N[C@H]1COc2ccc(COCC(F)(F)F)cc2C1)c1cc2n(n1)CCC(COC(F)F)O2 (some centres unmarked) [Example 139]	≤ 5.52	> 6.00		
O=C(N[C@H]1COc2ccc(C(F)(F)F)cc2C1)c1nn2c(c1-c1ccn[nH]1)OCCCC2 [Example 258, (R)-3-(1H-pyrazol-5-yl)-N-(6-(trifluoromethyl)chroman-3-yl)-5,6,7,8-tetrahydropyrazolo[5,1-b][1,3]oxazepine-2-carboxamide]			> 6.00	> 6.00
O=C(NC1COc2ccc(Br)cc2C1)c1cn2c(n1)CCC(C(F)(F)F)C2 (centres unmarked) [Example 12]	5.52 to 6.00	> 6.00		
N#Cc1cccc2c1CC(NC(=O)c1cn3c(n1)CCC(C(F)(F)F)C3)CO2 (centres unmarked) [Example 294]			≤ 5.52	> 5.00
N#Cc1ccc2c(c1)C[C@@H](NC(=O)c1cc3n(n1)CCC(OC(F)(F)F)CO3)CO2 (stereo partly drawn) [Example 252, N—((R)-6-cyanochroman-3-yl)-6-(trifluoromethoxy)-5,6,7,8-tetrahydropyrazolo[5,1-b][1,3]oxazepine-2-carboxamide]			≤ 5.52	> 6.00
N#Cc1ccc2c(c1)C[C@@H](NC(=O)c1cc3n(n1)CC(COc1ccccn1)O3)CO2 (some centres unmarked) [Example 450]			≤ 5.52	> 5.00
O=C(N[C@H]1COc2ccc(C(F)(F)F)cc2C1O)c1cc2n(n1)CC(CCCOCC(F)F)O2 (single isomer, unassigned) [608 (isomer B)]			≤ 5.52	> 6.00
N#Cc1ccc2c(c1)C[C@@H](NC(=O)c1cc3n(n1)CCN(CCC1CC1)C3)CO2 [Example 491]			≤ 5.52	> 5.00
N#Cc1ccc2c(c1)C[C@@H](NC(=O)c1cc3n(n1)CC[C@H](COCC(F)(F)F)CO3)CO2 (single isomer, unassigned; isomer a) [572(isomer A)]			≤ 5.52	> 5.00
O=C(N[C@H]1COc2ccc(CC(F)F)cc2C1)c1cc2n(n1)CCC(COC(F)(F)F)O2 (single isomer, unassigned) [136 (isomer A)]	> 6.00	> 6.00		
COc1ncccc1C1CCc2nc(C(=O)N3CCC(c4ccccc4)C3)cn2C1 (centres unmarked) [Example 26]	≤ 5.52	> 5.00		
O=C(NCCc1cccc(C(F)(F)F)c1)c1nc2n(c1-c1ccccc1)CCCC2 [Example 22]	≤ 5.52	> 5.00		
COc1cccc(-c2c(C(=O)N[C@H]3COc4ccc(Cl)cc4C3)nc3n2CCOC3)n1 [Example 65]	> 6.00	> 6.00		
CC(C)(CC1CC1)N1CCn2nc(C(=O)N[C@H]3COc4ccc(C#N)cc4C3)cc2C1 [Example 502]			5.52 to 6.00	> 5.00
O=C(NC1COc2cccc(-c3ccccc3)c2C1)c1cn2c(n1)CCC(C(F)(F)F)C2 (centres unmarked) [Example 291]			≤ 5.52	> 5.00
O=C(N[C@H]1COc2ccccc2C1)c1cc2n(n1)CCN(CC(C1CC1)C1CC1)C2 [Example 490]			≤ 5.52	> 5.00
COc1cccc(-c2c(C(=O)N[C@H]3COc4ccc(Cl)cc4C3)nc3n2CCCC3)n1 [Example 17, (R)—N-(6-chlorochroman-3-yl)-3-(6-methoxypyridin-2-yl)-5,6,7,8-tetrahydroimidazo[1,2-a]pyridine-2-carboxamide]	5.52 to 6.00	> 6.00		
O=C(c1cn2c(n1)CCC(CCc1ccccc1)C2)N1CCC(Oc2ccccn2)C1 (centres unmarked) [Example 29]	5.52 to 6.00	> 5.00		
O=C(N[C@H]1COc2ccccc2C1)c1cc2n(n1)CCC(c1ccccc1)N2 (some centres unmarked) [Example 287]			≤ 5.52	> 5.00
O=C(N[C@H]1COc2ccc(Cl)cc2C1)c1cc2n(n1)CCC(OCC(F)(F)F)CO2 (single isomer, unassigned) [256 (isomer A)]			≤ 5.52	> 6.00
CCC1CCn2nc(C(=O)N[C@H]3COc4ccc(C#N)cc4C3)cc2O1 (some centres unmarked) [Example 91]	≤ 5.52	> 5.00		
COc1ccc(CCC2CCc3nc(C(=O)N4CCC(c5ccccc5)C4)cn3C2)cn1 (centres unmarked) [Example 317]			≤ 5.52	> 5.00
